Experimental data published in publication PMC11476552, “Synthesis and Preliminary Studies for In Vitro Biological Activity of Two New Water-Soluble Bis(thio)carbohydrazones and Their Copper(II) and Zinc(II) Complexes” (International Journal of Molecular Sciences, 2024).
“And” between values parts separate entries of the source, which are not always exact repeats. Identical values can stand only once.

Columns and labels:
[1] = Zn(II) complex formation equilibria, spectrophotometric titration at pH 7.4; type: physicochemical; conditions: for Log β([Zn2L]) / Log β([ZnL]): conditional formation constant, aqueous 25 mM HEPES buffer, pH 7.4, 25 °C
Description: The best fit was obtained using a speciation model that consists of the sequential formation of a monometallic [ZnL] and a bimetallic [Zn2L] species. In fact, two families of spectra were observed, according to the presence in solution of two complex species and the free ligand. The first family of spectra (Zn/L = 0–1) (Figure S25) is characterized by a decrease in intensity for the bands of the free ligand at 239, 315, and 450 nm, and the appearance of bands at 251 and 394 nm. There are four isosbestic points at 245, 280, 371, and 429 nm. The second family of spectra (Zn/L = 1–2) (Figure S26) presents redshift and increase in absorbance of the band at 251 nm, the disappearance of the band at 349 nm, and redshift with decrease of absorbance of the band at 394 nm. […] The log β values for the formation of Zn(II) complexes with Na2H4L^1 · 5.5 H2O can be estimated (Table 4), and a representative distribution diagram is reported in Figure S27.
The spectra are characterized by four bands at ca. 238, 255, 305, and 371 nm, with those at 255 and 371 nm increasing in intensity with the addition of metal ions. The presence of these separated absorption bands led to the observation of three apparent isosbestic points at 243, 276, and 345 nm. Analogously to the Zn(II)/bis-thiocarbohydrazone system, the best fit was obtained using a speciation model that consists of the sequential formation of a monometallic [ZnL] and a bimetallic [Zn2L] species. In Figure 8, the absorbance values at 307 nm as a function of the equivalents of added Zn(II) are reported. The absorbance trend presents two almost linear regions between 0 and 1 eq. of Zn(II) and between 1 and 2 eq., respectively. This is, in fact, consistent with the sequential formation of two species with Zn:L ratios of 1:1 and 2:1, respectively. […] This behaviour is, perhaps, to be expected, taking into account the softer nature of the thiocarbohydrazonic group.
Samples used for the study of protonation equilibria of the ligands were prepared as follows. […] For each solution, the absorption spectrum was collected in the 220–600 nm range at 298.2 K. The spectral data collection was carried out immediately after the preparation of the samples and repeated after 3 and 10 min for all the samples at different pH values to check the stability of the ligand. […] The complex formation equilibria at pH 2.5 or 7.4 of bis-TCH and bis-CH with Cu(II) and Zn(II) ions were studied by direct spectrophotometric titrations of solutions of the ligands with the metal ions, and the samples were prepared as follows. Appropriate aliquots of the stock solutions of the ligands were diluted in a quartz cuvette of 1 cm path length using HEPES buffer (pH 7.4) or by adding HCl aqueous solution (pH 2.5) to obtain ca. 17 µM ligand solutions in a total volume of 2.6 mL. The obtained ligand solutions were titrated with Cu(II) or Zn(II) titrant solutions (ca. 442 µM) up to a metal/ligand ratio of 3 for the studies at pH 7.4 and up to a Cu(II):ligand ratio of 5 (for Na2H4L^1 · 5.5 H2O) and 7 (for Na2H4L^2 · 5 H2O) for the studies at pH 2.5. […]
The logarithms of the apparent stability constants were calculated from the spectral dataset using HypSpec2014 software. […] All equilibria were studied at fixed pH, and therefore the determined log β values are logarithms of conditional formation constants. […] Speciation diagrams were calculated using the Hyss2009 software. […]

U937 cells = test: Antiproliferative activity, trypan blue cell count, U937; type: cell-based; conditions: for GI50: Homo sapiens, U-937, U937, 72 h
Protocol: We have started to investigate the antiproliferative profile of the ligands and of the complexes C1–C4 using a normal fibroblast cell line (Hs27) and a leukaemia cell line (U937), an in vitro cell model system systematically used to validate the toxicological profile of new potential anticancer agents. For the cytotoxicity assay, we treated Hs27 and U937 cells with five different concentrations of compound, ranging from 12.5 to 100 µg/mL, for 24, 48, and 72 h.
U937 cells (ATCC, CRL-1593.2) were obtained from the American Tissue Culture Collection (Rockville, MD, USA) and were cultured in Roswell Park Memorial Institute Medium (RPMI-1640) (Euroclone, Italy); Hs27 cells (ATCC, CRL1634) were grown in DMEM. Both media were supplemented with 10% (v/v) foetal bovine serum (Euroclone, Italy), 1% L-glutamine (2 mM) (Euroclone, Italy), and 1% penicillin (100 U/mL)/streptomycin (100 µg/mL) (Euroclone, Italy), added with 10% (v/v) foetal bovine serum (Euroclone, Italy), 1% L-glutamine (2 mM) (Euroclone, Italy), and 1% penicillin (100 U/mL)/streptomycin (100 µg/mL) (Euroclone, Italy). Flasks were maintained at 37 °C and 5% CO2 in a humidified atmosphere. Cultures media were refreshed every two or three days during sub-culturing.
The antiproliferative activity of the ligands and the complexes C1–C4 was evaluated in vitro on U937 and Hs27 cell lines. In the exponential growth phase, cells were seeded at 5 × 10^4/mL into 12-well flat-bottom microplates. Cells were cultured in complete medium supplemented with 10% FBS, 1% L-glutamine, and 1% penicillin/streptomycin at 37 °C, 5% CO2. After seeding, different concentrations of compounds in the range from 0 to 100 µg/mL in a sterile 1X PBS solution were added to the wells and incubated for 24, 48, and 72 h. A negative control was obtained by treating cells with 1X PBS. To detect whether the treatments caused a defect in cell viability, following 24, 48, and 72 h treatments with the compounds, cells were stained with trypan blue (TB, 0.4%) (Gibco™, Thermofisher Scientific, Waltham, MA, USA). Two independent experiments were performed, and a Bürker chamber was used for cell counts. The GI50 value, i.e., the concentration causing a 50% reduction in the cell number in comparison with control cells, was calculated taking into account the guidelines of the US National Cancer Institute (NCI). Values are reported as the mean of the GI50 calculated on two independent experiments.

Compound	Log β([Zn2L]) [1]	Log β([ZnL]) [1]	GI50 (U937 cells)	cytotoxic effect (in words) (U937 cells; U937, up to 100 µg/mL, 24-72 h)	higher stability of Zn(II) complexes versus Na2H4L^2 · 5 H2O (difference in log β, both species) ([1]; pH 7.4, [ZnL] and [Zn2L])	reduction in cell viability (U937 cells; U937, highest dose, 72 h)
COc1cc(S(=O)(=O)[O-])cc(/C=N/NC(=O)N/N=C/c2cc(S(=O)(=O)[O-])cc(OC)c2O)c1O.[Na+].[Na+] [bis-CH, Bis-(sodium 3-methoxy-5-sulfonate-salicylaldehyde)-carbohydrazone]	13.61(4)	7.08(3)	46.5 µg/mL and 71.8 µM	mild antiproliferative activity	–	–
COc1cc(S(=O)(=O)[O-])cc(/C=N/NC(=S)N/N=C/c2cc(S(=O)(=O)[O-])cc(OC)c2O)c1O.[Na+].[Na+] [bis-TCH, Bis-(sodium 3-methoxy-5-sulfonate-salicylaldehyde)-thiocarbohydrazone]	15.29(10)	8.40(6)	98 µg/mL and 144 µM	–	ca. 1.5 log units	50%
